Data as given in patent US5646184A, “Preparation for external application to the skin and novel benzoic acid derivatives” (Kao Corporation, priority 1993, dated 1997).

Test system: skin tissue containing sebaceous glands (sebum synthesis)
Experiment: Percent sebum synthesis inhibition in cultured hamster auricle skin tissue containing sebaceous glands (radioactive sodium acetate incorporation into lipids; method of Hall et al.)
Type: cell-based
Settings: Mesocricetus auratus; concentration 8 μM; 3 hours culture; average of 6 animals
Procedure: The following test was conducted to evaluate the sebum synthesis inhibitory action of the benzoic acid derivatives according to the present invention.
Measurement of sebum synthesis was made in accordance with the method of Hall, et al. (cf. Arch. Dermatol. Res., 275:1-7 (1983)). The skin tissue (diameter: 4 mm) containing sebaceous glands, taken from the auricle of a male hamster, was cultured in a Krebes-Ringer's phosphate-buffered solution containing radioactive sodium acetate for 3 hours. The tissue was hydrolyzed and extracted with hexane. The amount of the radioactive labelled lipids in the hexane fraction was measured with a liquid scintillation counter to obtain the amount of the synthesized sebum. The skin tissue obtained from the left auricle of a hamster was tested using a Krebes-Ringer's phosphate-buffered solution, while that obtained from the right one of the same hamster was tested using a Krebes-Ringer's phosphate-buffered solution containing each of the compounds shown in Tables 1 and 2, and a percent synthesis inhibition was obtained according to the following numerical formula.
Percent sebum synthesis inhibition (%) =
100 - (amount of sebum synthesized in the presence of
a test compound)/(amount of sebum synthesized in the
absence of a test compound) × 100

Structure (SMILES) | inhibition at 8 µM
O=C(O)c1cc(OCCC2CCCCC2)ccc1O [Compound 24, 5-(2-cyclohexylethoxy)-2-hydroxybenzoic acid] | 78%
CCCCCCOc1ccc(O)c(C(=O)O)c1 [Compound 25, 5-n-hexyloxy-2-hydroxybenzoic acid] | 80%
CC(=O)Oc1cc(OCC2CCCCC2)ccc1C(=O)O [Compound 29, 2-acetoxy-4-cyclohexylmethoxybenzoic acid] | 48%
CC(CCOc1ccc(O)c(C(=O)O)c1)CC(C)(C)C (centres unmarked) [Compound 23, 2-hydroxy-5-(3,5,5-trimethylhexyloxy)benzoic acid] | 83%
CCCCC(CC)COc1ccc(O)c(C(=O)O)c1 (centres unmarked) [Compound 22, 5-(2-ethylhexyloxy)-2-hydroxybenzoic acid] | 84%
CCCCCCCCOc1ccc(C(=O)O)c(O)c1 [Compound 20, 2-hydroxy-4-n-octyloxybenzoic acid] | 26%
CCCCCCCCCCOc1ccc(C(=O)O)c(O)c1 [Compound 21, 4-n-decyloxy-2-hydroxybenzoic acid] | 13%
CCCCCCOc1ccc(C(=O)O)c(O)c1 [Compound 19, 4-n-hexyloxy-2-hydroxybenzoic acid] | 58%
CCCCC(CC)COc1ccc(C(=O)NCCO)c(O)c1 (centres unmarked) [Compound 27, N-(2-Hydroxyethyl)-4-(2-ethylhexyloxy)-2-hydroxybenzamide] | 15%

Same assay, conditions: Mesocricetus auratus; concentration 10 μM; 3 hours culture; average of 6 animals

Structure (SMILES) | inhibition at 10 µM
CC(CCOc1ccc(C(=O)O)c(O)c1)CC(C)(C)C (centres unmarked) [Compound 15, 2-hydroxy-4-(3,5,5-trimethylhexyloxy)benzoic acid] | 66%
CCCCC(CC)COc1ccc(C(=O)O)c(O)c1 (centres unmarked) [Compound 14, 4-(2-ethylhexyloxy)-2-hydroxybenzoic acid] | 60%
CC(C)=CCC/C(C)=C/COc1ccc(O)c(C(=O)O)c1 [Compound 40, 5-{(2E)-3,7-dimethylocta-2,6-dienyloxy}-2-hydroxybenzoic acid] | 72%
O=C(O)c1ccc(OCCC2CCCCC2)cc1O [Compound 17, 4-(2-cyclohexylethoxy)-2-hydroxybenzoic acid] | 57%
CC(C)=CCC/C(C)=C/COc1ccc(C(=O)O)c(O)c1 [Compound 39, 4-{(2E)-3,7-dimethylocta-2,6-dienyloxy}-2-hydroxybenzoic acid] | 52%
O=C(O)c1ccc(OCC2CCCCC2)cc1O [Compound 16, 4-cyclohexylmethoxy-2-hydroxybenzoic acid] | 44%
CC(C)=CCCC(C)CCOc1ccc(C(=O)O)c(O)c1 (centres unmarked) [Compound 18, 4-(3,7-dimethyl-6-octenyloxy)-2-hydroxybenzoic acid] | 45%
CC(C)=CCC/C(C)=C/COc1ccc(C(=O)NCCO)c(O)c1 [Compound 46, N-(2-hydroxyethyl)-4-{(2E)-3,7-dimethylocta-2,6-dienyloxy}-2-hydroxybenzamide] | 28%

Same assay, conditions: Mesocricetus auratus; concentration 100 μM; 3 hours culture; average of 6 animals

Structure (SMILES) | inhibition at 100 µM
CCCCC(CC)COc1ccc(C(=O)OC)c(O)c1 (centres unmarked) [Compound 1, methyl 4-(2-ethylhexyloxy)-2-hydroxybenzoate] | 32%
CC(C)=CCC/C(C)=C/COc1cc(O)cc(C(=O)O)c1 [Compound 42, 3-{(2E)-3,7-dimethylocta-2,6-dienyloxy}-5-hydroxybenzoic acid] | 70%
CC(C)=CCC/C(C)=C/COc1ccc(C(=O)O)c(O)c1 [Compound 39, 4-{(2E)-3,7-dimethylocta-2,6-dienyloxy}-2-hydroxybenzoic acid] | 93%
CC(=O)Oc1cc(OC/C=C(\C)CCC=C(C)C)ccc1C(=O)O [Compound 45, 2-acetoxy-4-{(2E)-3,7-dimethylocta-2,6-dienyloxy}benzoic acid] | 47%
CC(C)=CCC/C(C)=C/CC/C(C)=C/COc1ccc(C(=O)O)c(O)c1 [Compound 43, 2-hydroxy-4-{(2E,6E)-3,7,11-trimethyl-2,6,10-dodecatrienyloxy}benzoic acid] | 47%
CC(C)=CCC/C(C)=C/COc1cccc(C(=O)O)c1O [Compound 41, 3-{(2E)-3,7-dimethylocta-2,6-dienyloxy}-2-hydroxybenzoic acid] | 91%
